Test results from patent US7169592B2, “Producing optically active amino compounds” (Kaneka Corporation, priority 1997, dated 2007).
“And” between values parts separate entries of the source, which are not always exact repeats. Equal entries are not always repeated. Where two headings read alike, the source gives them in different places. Marks after values point to notes of the source that are not given here.

Key:
[1] = system: benzylamine transaminase of Okada et al.; details: without addition = 100, cited from earlier work
[2] = system: Transaminase of Present Invention (purified enzyme); experiment: Influence of reaction inhibitors on purified transaminase; assay type: biochemical, Arthrobacter sp. KNK168; details: for Relative activity with inhibitor: inhibitor 1 mM, without addition = 100
Description: (§1) The differences with the ω-amino acid transaminase derived from Pseudomonas sp. F-1 (Agric. Biol. Chem., 42, 2363–2367 (1978), Agric. Biol. Chem., 43, 1043–1048 (1979), J. Biol. Chem., 258, 2260–2265 (1983)) which have been well studied among the ω-amino acid transaminases, and with the benzylamine transaminase of Okada et al. (Japanese Patent Laid-Open No. Hei 6-178685) are summarized and shown in Table 2. In a case of the transaminase reaction in the present invention, the data of the purified enzyme are used, and in cases of those by other two enzymes, the data of the purified enzymes which are disclosed in each of the literature publication and laid-open patent publication are used. Pyruvic acid is used as an amino group acceptor in all cases.

[3] = system: Arthrobacter species KNK168 strain; experiment: Inducer added during culture; (R)-DMA formation by the separated cells; assay type: cell-based; details: substance added to medium as inducer; reaction 30° C., 20 hours, 1% 1-(3,4-dimethoxyphenyl)-2-propanone, 1% (RS)-1-methylpropylamine
Description: When culturing the Arthrobacter species KNK168 strain by the method described in Example 1, (RS)-1-methylpropylamine, (RS)-1-methylbutylamine, (RS)-3-amino-2,2-dimethylbutane, (RS)-2-amino-1-butanol, or (RS)-1-phenylethylamine was added to the medium in place of (R)-1-(3,4-dimethoxyphenyl)-2-aminopropane ((R)-DMA). The cells were separated from the culture, and the reaction was carried out at 30° C. for 20 hours using the above cells in a reaction mixture containing 1% 1-(3,4-dimethoxyphenyl)-2-propanone and 1% (RS)-1-methylpropylamine.

[4] = system: Transaminase of Present Invention (purified enzyme); experiment: Reactivity of purified transaminase to amino compounds (amino group donors) with pyruvic acid as acceptor; assay type: biochemical, Arthrobacter sp. KNK168; parameters: Substrate Specificity, relative activity: concentration or dose not given beside the values; details: for Relative Activity: amino compound 40 mM in substrate solution, pyruvic acid acceptor, pH 8.3, 30° C., 1 hour, (R)-1-phenylethylamine = 100; for Substrate Specificity, relative activity: purified enzyme, pyruvic acid as amino group acceptor
Description: as §1
Using the purified enzyme protein obtained in Example 9, reactivities to various amino compounds when using pyruvic acid as an amino acceptor were evaluated. A 150 μl solution of the purified enzyme protein solution diluted ten-folds was added to a 150 μl substrate solution [0.1 M potassium phosphate buffer (pH 8.3), 40 mM pyruvic acid, 0.1 mM pyridoxal phosphate, and 40 mM various amino compounds]. The components were reacted at 30° C. for 1 hour. The reaction tube was transferred into boiling water to stop the reaction, and thereafter, a part of the reaction mixture was diluted five-folds. Ten μl 0.1 M boric acid buffer (pH 8.0) and a 20 μl ethanol solution of 80 mM 4-fluoro-7-nitro-2,1,3-benzoxadiazole (NBD-F) were added to the 10 μl above-mentioned diluted reaction mixture. The resulting mixture was reacted at 60° C. for 1 minute, and thereafter, the resulting mixture was ice-cooled, and 460 μl 5 mM HCl was added thereto. This reaction mixture was analyzed by high-performance liquid chromatography using a fine pack C18-5 column (manufactured by Nippon Bunko) I and using 0.1 M potassium phosphate buffer (pH 6.5) and CH3CN (90:10) as an eluent to detect formation of NBD-Alanine with an excitation wavelength of 470 nm and a detection wave of […]. The results thereof are shown in Table 8 in terms of relative activity in the case of using […] as a substrate.

[5] = system: benzylamine transaminase of Okada et al.; details: cited from earlier work; for Substrate Specificity, relative activity: purified enzyme, laid-open patent publication, pyruvic acid as amino group acceptor
[6] = target: T1, ω-amino acid transaminase (Pseudomonas putida, UniProt P28269); details: purified enzyme, literature; pyruvic acid as amino group acceptor; cited from earlier work
T1 sequence (P28269 1-449): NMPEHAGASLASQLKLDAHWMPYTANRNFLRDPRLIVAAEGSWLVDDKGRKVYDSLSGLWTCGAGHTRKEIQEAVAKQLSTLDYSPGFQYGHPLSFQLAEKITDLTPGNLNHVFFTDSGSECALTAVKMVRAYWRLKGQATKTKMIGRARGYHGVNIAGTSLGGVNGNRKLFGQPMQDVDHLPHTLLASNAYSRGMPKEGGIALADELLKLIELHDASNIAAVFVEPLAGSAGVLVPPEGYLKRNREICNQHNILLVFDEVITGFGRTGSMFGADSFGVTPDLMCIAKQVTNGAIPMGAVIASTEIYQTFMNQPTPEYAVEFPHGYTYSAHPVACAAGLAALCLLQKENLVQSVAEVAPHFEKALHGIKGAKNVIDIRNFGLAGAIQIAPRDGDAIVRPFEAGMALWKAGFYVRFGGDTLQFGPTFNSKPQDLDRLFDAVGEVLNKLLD

[7] = system: Arthrobacter species KNK168 strain; experiment: Amino group donors in whole-cell transamination of 1-(3,4-dimethoxyphenyl)-2-propanone; assay type: cell-based; details: for (R)-DMA Formed: 1% amino group donor, 1% 1-(3,4-dimethoxyphenyl)-2-propanone, 0.1% Triton X-100, pH 8.5, 35° C., 20 hours; for Function as amino group donor (in words): whole cells
Description: The cultured cells were harvested by centrifugation, and the harvested cells were suspended in a reaction mixture (pH 8.5) containing 1% 1-(3,4-dimethoxyphenyl)-2-propanone, 0.1% Triton X-100, and 1% an amino group donor shown in Table 5. The mixture was reacted at 35° C. for 20 hours.

[8] = system: transaminase (intracellular enzyme); experiment: Activity of the transaminase (intracellular enzyme) on typical substrates of ω-aminotransferases; assay type: biochemical, Arthrobacter sp. KNK168
[9] = system: Transaminase of Present Invention; experiment: Usability as amino group donor, transaminase of present invention; assay type: biochemical, Arthrobacter
Description: Further, the transaminase derived from Arthrobacter which can be used in the present invention is different from the above-mentioned enzyme derived from Brevibacterium in many other aspects.

[10] = target: T1, ω-amino acid transaminase; details: inhibitor 1 mM; without addition = 100; cited from earlier work
[11] = amino group acceptor 2-ketoglutaric acid, (R)-1-phenylethylamine/pyruvic acid = 100 (control)

NNc1ccccc1 [Phenylhydrazine]
Relative activity with inhibitor ([1]; inhibitor 1 mM): 27% | Influence of reaction inhibitor on the transaminase (in words) [2]: affected only a little | Relative activity with inhibitor [2]: 82%

CCC(N)CO (racemic) [(RS)-2-Amino-1-butanol]
(R)-DMA Formed [3]: 12.9%

NCc1ccccc1 [Benzylamine]
Relative Activity [4]: 0.8% | Substrate Specificity, relative activity [4]: 0.8% | Action of benzylamine transaminase on the substance (in words) ([5]; in the presence of pyruvic acid): strongly acts on | Substrate Specificity, relative activity [5]: 100% | Substrate Specificity, relative activity [6]: 45%

CC(N)c1ccccc1 (racemic) [(RS)-1-Phenylethylamine]
(R)-DMA Formed [7]: 61.3% | Function as amino group donor (in words) [7]: functioned as amino group donors | (R)-DMA Formed [3]: 8.0%

CCCCN [n-Butylamine]
Action of the transaminase on the substance (in words) [4]: does not act on | Substrate Specificity, relative activity [4]: 0% | Substrate Specificity, relative activity [5]: 0% | Substrate Specificity, relative activity [6]: 60%

NCCCC(=O)O [4-Aminobutyric acid]
Action of the transaminase on the substance (in words) [4]: does not act on | Substrate Specificity, relative activity [4]: 0% | Substrate Specificity, relative activity [6]: 40% | Relative Activity [8, 11]: 0%

NCCCCN [Putrescine]
Action of the transaminase on the substance (in words) [4]: does not act on | Substrate Specificity, relative activity [4]: 0% | Substrate Specificity, relative activity [5]: 0% | Substrate Specificity, relative activity [6]: 55% | Relative Activity [8, 11]: 0%

COc1ccc(C[C@@H](C)N)cc1OC [(R)-DMA, (R)-1-(3,4-dimethoxyphenyl)-2-aminopropane]
Relative Activity [4]: 30% | (R)-DMA Formed [3]: 0.9%

NCCC(=O)O [β-Alanine]
Action of the transaminase on the substance (in words) [4]: does not act on | Substrate Specificity, relative activity [4]: 0* % | Substrate Specificity, relative activity [5]: 0* % | Substrate Specificity, relative activity [6]: 100* % | Activity on the substance as amino group donor (in words) [8]: does not act on | Relative Activity ([8]; amino group acceptor pyruvic acid, (R)-1-phenylethylamine = 100 (control)): 0%

Cl.N [ammonium chloride]
Amino Group Donor (usable or not) [9]: cannot be used as an amino group donor

NO [Hydroxylamine]
Relative activity with inhibitor ([1]; inhibitor 0.1 mM): 30% | Relative activity with inhibitor [10]: 0% | Influence of reaction inhibitor on the transaminase (in words) [2]: affected only a little | Relative activity with inhibitor [2]: 17%

CCCC(C)N (racemic) [(RS)-1-Methylbutylamine]
(R)-DMA Formed [7]: 54.7% and 56.9% | Function as amino group donor (in words) [7]: functioned as amino group donors | (R)-DMA Formed [3]: 13.0%

N[C@@H](CCC(=O)O)C(=O)O [glutamic acid]
Amino Group Donor (usable or not) [9]: cannot be used as an amino group donor

O=S(=O)([O-])[O-].[Cu+2] [CuSO4]
Relative activity with inhibitor ([1]; inhibitor 0.5 mM): 5% | Relative activity with inhibitor [2]: 44%

CC(N)C(C)(C)C (racemic) [(RS)-3-Amino-2,2-dimethylbutane]
(R)-DMA Formed [3]: 18.6%

CC(C)(S)[C@@H](N)C(=O)O [D-Penicillamine]
Relative activity with inhibitor ([1]; inhibitor 1 mM): 0% | Relative activity with inhibitor [2]: 93%

N[C@@H](CC(=O)O)C(=O)O [aspartic acid]
Amino Group Donor (usable or not) [9]: cannot be used as an amino group donor

NCCc1ccccc1 [β-Phenethylamine]
Substrate Specificity, relative activity [4]: 0% | Substrate Specificity, relative activity [5]: 9% | Substrate Specificity, relative activity [6]: 54%

O=C(O)c1cc[c]([Hg][Cl])cc1 [p-Chloromercuribenzoic acid]
Relative activity with inhibitor ([1]; inhibitor 0.1 mM): 9% | Relative activity with inhibitor [10]: 100% | Relative activity with inhibitor [2]: 53%

CCC(C)N (racemic) [(RS)-1-Methylpropylamine]
(R)-DMA Formed [7]: 28.2% | Function as amino group donor (in words) [7]: functioned as amino group donors | (R)-DMA Formed [3]: 22.3%
